Data published in patent US20180207190A1, “COMPOSITION CONTAINING NAD FOR PREVENTING AND TREATING OBESITY OR IMPAIRED GLUCOSE TOLERANCE” (UNIVERSITY OF ULSAN FOUNDATION FOR INDUSTRY COOPERATION, priority 2015, published 2018).
Entries after “also recorded” stand apart in the source; their conditions may differ.

Experiments:
C57BL/6 mice [1] = experiment: Feeding study, single intravascular (ICV, third ventricle cannula) administration: food intake and body weight; type: in vivo, mouse
Method: (§1) Mature male C57BL/6 mice were purchased from ORIENT BIO Inc. (Gyeonggi-do, Republic of Korea). Unless stated otherwise, the mice were freely fed a standard diet (Cargill Agri Purina, Inc., Seoul, Republic of Korea). To establish a diet-induced obesity (DIO) model, the mice were fed a HFD (60% fats, Research Diet Co., New Brunswick, N.J.) for 20 weeks. The animals were raised at a controlled temperature (22±1° C.) under a 12-hour light/dark cycle (a light condition from 08:00 a.m. to 8:00 p.m.) For experiments of single administration of NAD+ and NMN, 8-week-old mice were fasted overnight, and NAD+(purchased from Sigma, administered at 0.3, 1 and 3 mg/kg) or NMN (purchased from Sigma, administered at 30, 100, and 300 mg/kg) was intraperitoneally administered to the mice between 09:00 a.m. and 10:00 a.m. For ? chronic NAD+ treatment, NAD+(0.3 mg/kg body weight/day) was intraperitoneally injected once to the mice immediately before the lights went off for 4 weeks.
Permanent 26-gauge stainless steel cannulae were surgically inserted into the third ventricles of mice (a cannula insertion position: 1.8 mm posterior to bregma and 5.0 mm below the sagittal sinus). For surgery, the mice were anesthetized with a mixture of Zoletil and Rumpun (2:1 v/v, 10 μL/g body weight). The exact cannulation positions of the cannulae were confirmed through a positive dipsogenic response after angiotensin II (50 ng) was administered. Only the mice in which the cannulae were precisely positioned were used for data analyses. After a recovery period of 7 days after the surgery, the mice were daily touched for a predetermined time over a week to minimize a stress response to the experiments. Immediately before administration, NAD+ and NMN were dissolved in 0.9% saline and used. The NAD+ and NMN were dissolved in 2 μL of saline for intravascular administration.
(§2) A predetermined dose of NAD+ or NMN was administered to C57BL/6 mice, which were fasted overnight, during an early light phase (09:00 to 11:00) by using a given method. The same amount of a vehicle (i.e., physiological saline) was administered to the control mice.

C57BL/6 mice [2] = experiment: Feeding study, single intraperitoneal administration: food intake; type: in vivo, mouse
Method: as §1, §2

HFD-fed obese mice [3] = experiment: Chronic IP injection for 4 weeks: body weight and side effects in ND-fed and HFD-fed (diet-induced obesity) mice; type: in vivo, mouse; conditions: for body weight vs saline-injected group: NAD+ 0.3 mg/kg/day IP once a day for 4 weeks, 0.3 mg/kg/day
Method: as §1
Additionally, an effect of chronic IP injection of NAD+ on the body weight was also examined (FIG. 4). The mice were divided into four groups (a group of ND-fed mice to which saline was IP injected, a group of ND-fed mice to which NAD+ was IP injected, a group of HFD-fed mice to which saline was IP injected, and a group of HFD-fed mice to which NAD+ was IP injected), and NAD+ was intraperitoneally administered to the mice at a dose of 0.3 mg/kg/day once a day for 4 weeks.

HFD-fed obese mice [4] = experiment: Circadian rhythm of feed intake and physical activity (CLAMS) after chronic IP injection; type: in vivo, mouse; conditions: NAD+ 0.3 mg/kg/day IP 4 weeks, CLAMS 24 hours
Method: as §1
The feed intake and physical activity of mice were measured using a comprehensive laboratory animal monitoring system (CLAMS, Columbus Instruments) (n=4 to 5). The light and feeding conditions were maintained under the same conditions as in a home cage. Water was freely provided during an observation period.
Further, an effect of chronic IP injection of NAD+ on the feed intake was verified as follows. To examine a chronic effect of the NAD+ intraperitoneal injection on the feed intake, NAD+(0.3 mg/kg) or saline was administered to the following three groups of mice once a day for 4 weeks: an IP saline-injected group of mice fed the ND, an IP saline-injected group of mice fed the HFD, and an IP NAD+-injected group of mice fed the HFD.
To test an effect of habitual IP injection of NAD+(0.3 mg/kg/day) on mobility in an obese animal model, the mice were divided into three groups, that is, an IP saline-injected group of mice fed the ND, an IP saline-injected group of mice fed the HFD, and an IP NAD+-injected group of mice fed the HFD and the mobility thereof was evaluated.

C57BL/6 mice [5] = experiment: Oral glucose tolerance test; type: in vivo, mouse; conditions: NAD+ 0.3, 1, 3 mg/kg single IP 30 minutes before oral glucose 2 g/kg, overnight-fasted normal mice
Method: For an oral glucose tolerance test, the mice were fasted overnight, 2 g/kg (body weight) of glucose was orally administered (by oral gavage), and blood glucose levels were measured immediately before oral administration (0 minute) and 15, 30, 60, and 120 minutes after the oral administration. 30 minutes prior to glucose administration, NAD+(0.3, 1 and 3 mg/kg) was intraperitoneally administered.
To examine an effect of single IP injection of NAD+ on the glucose tolerance, an oral glucose tolerance test was performed on ND-fed C57BL/6 mice that were fasted overnight. A single IP dose of NAD+(0.3, 1 and 3 mg/kg) was administered to the mice, and glucose (2 g/kg) was orally administered thereto after 30 minutes. Thereafter, blood glucose levels were measured at 15, 30, 60, and 120 minutes.

[6] = tested on: cultured neuronal cells, astrocytes, and cardiac myocytes; conditions: cells treated with NAD+; cited from earlier work
rodents = conditions: exogenous NAD+ administration; cited from earlier work
[7] = NR supplementation; cited from earlier work
NQO1 = NQO1 (Homo sapiens, UniProt P15559); conditions: cited from earlier work
Sequence of NQO1 (P15559 whole entry, species assumed): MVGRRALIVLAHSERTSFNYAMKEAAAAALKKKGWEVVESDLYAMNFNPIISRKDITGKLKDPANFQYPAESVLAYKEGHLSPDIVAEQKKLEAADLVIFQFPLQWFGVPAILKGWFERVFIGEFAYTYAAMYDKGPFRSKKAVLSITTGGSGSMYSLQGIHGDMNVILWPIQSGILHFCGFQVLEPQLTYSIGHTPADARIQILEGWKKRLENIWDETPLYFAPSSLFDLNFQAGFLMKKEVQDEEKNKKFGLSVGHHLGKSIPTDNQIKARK

[8] = tested on: diabetic mice fed a high-fat diet; conditions: cited from earlier work

NC(=O)c1ccc[n+]([C@@H]2O[C@H](COP(=O)([O-])OP(=O)(O)OC[C@H]3O[C@@H](n4cnc5c(N)ncnc54)[C@H](O)[C@@H]3O)[C@@H](O)[C@H]2O)c1 [NAD+, nicotinamide adenine dinucleotide]
weight gain / body weight for 24 hours vs saline (C57BL/6 mice [1]; NAD+ 0.2 pmol single intracerebroventricular (ICV)): significantly suppressed; also recorded: reduced the body weight; also recorded: significantly reduced level of weight gain | food intake vs saline (C57BL/6 mice [1]; NAD+ 0.2, 1, 2 pmol single intracerebroventricular (ICV), overnight-fasted mice, observed for 24 hours, effect maintained at 24 hours): significantly reduced; also recorded: reduced food intake | time at which decrease in food intake started after administration (C57BL/6 mice [1]; NAD+ single intracerebroventricular (ICV)): 2 h | food intake at 4 hours vs saline (C57BL/6 mice [2]; NAD+ 1 mg/kg single IP): significantly reduced | food intake at 4 hours vs saline (C57BL/6 mice [2]; NAD+ 0.3, 1, 3 mg/kg single IP, overnight-fasted mice): significantly reduced | body weight vs saline-injected group (HFD-fed obese mice [3]; HFD-fed obese mice): significantly reduced; also recorded: significant effect; also recorded: significant decrease | side effects of chronic injection (HFD-fed obese mice [3]; NAD+ 0.3 mg/kg/day IP, 4 weeks): did not cause any notable side effects | body weight vs saline-injected group (HFD-fed obese mice [3]; ND-fed normal mice): did not induce a weight loss; also recorded: not significantly different | daytime feed intake (HFD-fed obese mice [4]): significantly reduced | nighttime feed intake (HFD-fed obese mice [4]): did not significantly reduce | food intake frequency (HFD-fed obese mice [4]; 0.3 mg/kg/day): suppressed a high food intake frequency of the obese mice to a normal mouse level; also recorded: significantly reduced | nighttime physical activity (mobility) (HFD-fed obese mice [4]; 0.3 mg/kg/day): remarkably restored | blood glucose level at 15 and 30 minutes after glucose administration vs saline (C57BL/6 mice [5]): significantly reduced; also recorded: much lower blood glucose level | apoptosis induced by oxidative stress [6]: reduced | ischemic brain damage and cardiomegaly (rodents): improves

NC(=O)c1ccc[n+]([C@@H]2O[C@H](CO)[C@@H](O)[C@H]2O)c1 [NR, nicotinamide riboside]
NAD+ level in peripheral tissues such as liver and skeletal muscles [7]: increases | NAD+ level in the brain [7]: does not increase

CC1(C)CCC2=C(O1)c1ccccc1C(=O)C2=O [βL]
NAD+, NAD+/NADH, and NADP+/NADPH ratios (NQO1): increase

NC(=O)c1ccc[n+]([C@@H]2O[C@H](COP(=O)([O-])O)[C@@H](O)[C@H]2O)c1 [NMN, nicotinamide mononucleotide, reference compound]
food intake vs saline (C57BL/6 mice [1]; NMN 10 pmol single ICV, 24 hours after injection): reduced; also recorded: much lower level of food intake | change in body weight for 24 hours vs control (C57BL/6 mice [1]; NMN 10, 100, 1,000 pmol single ICV): no significant difference; also recorded: did not cause a change in body weight | food intake at 4 hours vs saline (C57BL/6 mice [2]; NMN 300 mg/kg single IP): significantly reduced level of food intake | food intake at 24 hours vs control (C57BL/6 mice [2]; NMN 30, 100, 300 mg/kg single IP): did not have a reduced food intake; also recorded: not maintained; also recorded: no decrease in food intake | NAD+ level in the liver, adipose tissues, and skeletal muscles ([8]; IP NMN, HFD-fed diabetic mice): successfully increases | glucose tolerance ([8]; NMN, diabetic mice): restores damaged glucose tolerance
